For series [1] the following is noted: occupational exposure; cited from earlier work.
Series [2] has as its system CD34+CD38- hematopoietic stem cells. As to the kind of experiment: Colony formation from CD34+CD38- hematopoietic stem cells in semi-solid culture. It is filed as cell-based, human. To be noted: 500 cells per ml, 14 days, Figure 1. How it is done: Example 3. CD34+CD38- cells isolated from human bone marrow (Poietic Technologies) were counted using a hemocytometer and plated in semi-solid culture media (MethoCult GF+H4435, StemCell Technologies, Vancouver, British Columbia) containing methylcellulose, fetal bovine serum, BSA, recombinant human (rh) SCF, rh GM-CSF, rh G-CSF, rh IL-3, rh IL-6, rh erythropoietin, and L-glutamine to which were added varying concentrations of propylene glycol (FW=76.1 Density=1.04g/ml Fisher Scientific). The cells were plated at a density of 500 cells per 1 ml per 35 mm petri dish. After incubation at 37 °C, 5% CO2 for 14 days, the dishes were scored for colony formation.

The conditions of series [3]: accidental intoxication, cited from earlier work.
The conditions of series [4]: diet containing 6 or 12% propylene glycol; cited from earlier work.
In the next series the test system is Murine bone marrow cells. As to the kind of experiment: Long term culture initiating cell assay (LTCIC). It is filed as cell-based, C57bl mice. To be noted: 500 ng/ml, Figure 2. Here is the method: Example 4. Murine bone marrow was obtained from the femurs of adult C57bl mice, suspended in Myelocult (Stem Cell Technologies, Vancouver Canada), and cells were isolated by centrifugation at 500g for 10 minutes at 4 °C. Viability was determined by Trypan blue exclusion and aliquots were taken for plating efficiency in methylcellulose culture (MethoCult, Stem Cell Technologies). The remaining cell suspension was plated at a density of 6.25 x10^4/well into 24 well plates containing irradiated FBMD-1 feeder layers. To appropriate wells, propylene glycol was added to final concentration of 500 ng/ml. At weekly interval the cells were demidepopulated and fed with 250μl fresh medium. The harvested cells were washed with PBS and added to a 2.5 ml tube of MethoCult. Two 35mm petri dishes containing 1 ml each were plated from each tube. After 10 days incubation at 37 °C, 5% CO2, the dishes were scored for colonies.

For series [5] the following is noted: single oral dose; cited from earlier work.
Series [6] has as its system human proximal tubule (HPT) cells. The conditions noted are these: normally proliferating cultured HPT cells; cited from earlier work.
Series [7] can be described thus: Case report Patient 2, ingestion of antifreeze containing 30% propylene glycol. It is filed as in vivo, human. How it is done: Example 2. A person ingested an unknown amount of the antifreeze Freeze Proof containing 30% propylene glycol earlier. Following ingestion, the child acted normally and ate well until approximately 6 hours later when they developed slurred speech, right facial drooping, an abnormal, wobbling gait, and was noted walking into walls and unable sit up by […]. They were the brought to the emergency room approximately 12 hours after ingestion with the above symptoms. At that time a toxicological screen was obtained which was qualitatively positive for propylene glycol. They were then transferred to University Medical Center where their blood pressure was 106/70, pulse was 113, respiration was 18, temperature was 36.3 C. At that time they had slurred speech, good facial symmetry, intact cranial nerve examination, but an unsteady gait, and was drowsy and lethargic but arousable. Their pupils were equal and reactive to light. […] The child was given a charcoal and sorbitol lavage through an oral naso-gastric tube as well as IV fluid therapy with normal saline. Within 4 hours of admission, the child was able to walk and talk well without evidence of slurred speech. The following morning the child was discharged from the hospital with no evidence of the symptoms originally observed.

The conditions of series [8]: human, in vivo. From the text: Example 1. Patient 1 was a person with a history of congenital aqueductal stenosis diagnosed and treated with a Torkildson shunt. Nineteen months prior to admission, they sustained a minor head injury in a motor vehicle accident resulting in a shunt malfunction with recurrent headaches, necessitating treatment with a ventriculoperitoneal shunt. Consequent subdural hygromas became infected, leaving the patient with marked cognitive and motor impairments. They were transferred to a rehabilitation facility six months prior to admission to our hospital. […] All biochemical and hematologic abnormalities resolved within 36 hours. The patient remained well until four weeks prior to admission when they again developed fever (106), tachycardia (169 bpm), and tachypnea. Similar biochemical and hematological abnormalities were noted including a white blood cell count of 25,000 (per mm^3) and a thrombocyte count of 469,000 (per mm^3). Cultures of blood, urine, and CSF were negative. Within 36 hours the patient returned to baseline. Similar episodes were noted to occur at roughly seven day intervals. CT scans of chest, abdomen and pelvis, and a gallium scan were unremarkable. After the fourth recorded episode, the patient was transferred to our neurological unit for evaluation of an occult ventriculoperitoneal shunt infection or possible hypothalamic dysregulation.
On transfer, the patient was noted to have BP 120/80, HR 88 bpm and T 37.5. The general physical examination was notable only for generalized pallor and contractures of the lower extremities. They were awake but only able to follow single midline one-step commands. […] The patient was treated with kayexalate. The anion gap acidosis resolved within twelve hours. At that time, the patient was noted to develop oliguric renal insufficiency with a BUN of 41 (mg/dl) and creatinine of 2.2 (mg/dl). […] An unusual "green stool" which caked the patient's rectum was collected. Samples of the patient's blood, urine, and stool (collected 17 hours after the recorded onset of symptoms) were sent for toxicologic analysis. […]
In addition, prominent throughout the aspirate were eosinophils, mast cells as well as eo-basophils. Megakaryocytes were abundant.

Each structure is given as a SMILES string. Where two headings read alike, the source gives them in different places.

Take `COC(C)COC(C)CO` (stereo not shown) [dipropylene glycol monomethyl ether]: the bone marrow findings result in series [1] is “generally hypocellular marrow with decreased myeloid to erythroid ratios and an abundance of stored iron”.
Take `CC(O)CO` (stereo not shown) [propylene glycol, 1,2-propanediol]: the “effect on CFU formed from CD34+ cells” value in series [2] is given as “increased CFU formed from CD34+ cells”. For the same compound, in series [3] (chart review), the WBC is 25,000 per mm^3. In addition, the anion gap in series [3] is on record as 28. Besides, the erythrocyte effects result in series [4] is “accelerated erythropoiesis and reduction in red blood cell life span”. For the same compound, in the series on Murine bone marrow cells, the “increase of total cell number on the cultures over cells not exposed” value amounted to 50%. Besides, the spleen weight entry in [5] is on record as “significant increase in spleen weight”. Besides, the “concentration with toxic effects” value in series [6] was 50000 µM. Besides, in [7], the “biochemical or hematological outcome” value is recorded as “no biochemical or hematological abnormalities”. In series [8], this compound registered a BUN of 41 mg/dL, an LDH of 528 U/liter, an SGOT of 151 U/liter and an anion gap of 24. For the same compound, in series [8], the bicarbonate is 16 mmol/L; the bone marrow studies result is “relatively hypercellular marrow with increased myeloid precursors and megakaryocytes”; the creatinine came to 2.2 mg/dL; the creatinine kinase worked out at 8400 U/liter. For the same compound, in series [8], the “hematologic response to acute exposure” value was “dramatic leukocytosis and thrombocytosis”; the potassium was 5.8 mmol/L.

The values above are taken from patent US20030036567A1, “PROPYLENE GLYCOL AS AN AGENT TO STIMUATE THROMBOPOIESIS” (priority 2001, published 2003).
